Reference: US20250255847A1, “[…]s: Novel Drugs for Triple Negative Breast Cancer” (SIMMARON RSEARCH INC, priority 2024, published 2025)

System: STAT3-dependent tumor-promoting genes
Assay: cDNA-based gene array of 66 STAT3-dependent genes in MDA-MB-468 cells
Format: cell-based, human
Details: 10 nM doses, EGF-stimulated MDA-MB-468
Protocol: FIG. 10 illustrates an embodiment of the present invention and illustrates SIM-1 and SIM-2 inhibit expressions of IL6, RANTES, and other STAT3-dependent tumor promoting genes and proteins. (A) A gene array of STAT3 dependent 66 genes (listed in Table 1) was performed in mRNA samples of MDA-MB-468 cells. Realtime PCR plate coated with 66 primer sets of STAT3-dependent genes was run for four conditions including control, EGF (25 ng/mL), EGF+SIM-1 (10 nM) and EGF+SIM-2 (10 nM). The resultant Ct value was normalized with four different housekeeping genes, and then summarized with a heatmap analyses drawn in Morpheus server of Broad Institute. […] (C) The cloning of STAT3 response element of IL6 promoter upstream of GFP reporter was performed by GeneCopoea genome editing service (Rockville, MD). The bit score map and sequence of consensus STAT3 response element or SEQ ID NO: 2 was shown below. […] After that live cells were recorded at Ex:Em=485/535 nm wavelength for GFP activity. […] (G) The GFP reporter activity was measured where the scrambled gene was cloned upstream of eGFP reporter. […]
Gene array. […] After that, mRNA was isolated using the Gene Jet RNA purification kit (Cat. #K0732), quantified by Bio-Rad Smart Spec™ plus spectrophotometer, converted to cDNA by GoScript™ CDNA synthesis kit, as per the manufacturer's instructions. […]

| SMILES | expressions of tumor-promoting factors, inflammatory cytokine, metastatic and anti-apoptotic genes (AKT, IL6, RANTES, MMPs, Cyclin D1, Bcl-2 etc.) |
| --- | --- |
| CCOC(=O)c1c(NC(C)=O)sc2c(Cl)c(/C=N/O)ccc12 [SIM-2, ethyl 2-acetamido-7-chloro-6-(hydroxyiminomethyl)-1-benzothiophene-3-carboxylate] | strongly attenuated |
| O=C(O)CCC(=O)NCc1csc2ccc(Cl)cc12 [SIM-1, 4-[(5-chloro-1-benzothiophen-3-yl)methylamino]-4-oxobutanoic acid] | strongly attenuated |
